This data set can be described thus: gradient 5% acetonitrile 3 min, to 50% in 2 min, to 85% in 15 min, held 3 min, 100 µL/min. The following applies: column: Zorbax Extend-C18 2.1 x 50 mm; eluents: water / acetonitrile, 0.1% formic acid. The method in brief:
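Mixtures of ~100 pure standards were chromatographed on a Zorbax Extend-C18 column (2.1 × 50 mm, 1.8 μm) at 100 μL/min using water and acetonitrile, each with 0.1% formic acid. Detection used a quadrupole time-of-flight mass spectrometer in positive and negative ionization mode, and data collection spanned 3 months. Retention time was obtained from adduct peaks picked computationally and each checked manually.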
The compound `CCOc1ccc(/C=C/C(=O)Nc2nc(-c3ccc4c(c3)N(C)C(=O)CO4)cs2)cc1OC` registered an RP-LC retention time of 985 s. For `COc1ccc(C2Cn3cnc(C(=O)N4CCC(C(=O)NC5CCC(C)CC5)CC4)c3CO2)cc1` (stereo not given), the RP-LC retention time is 821 s. Under `CC(C)OCCCNC(=O)c1nnc(-c2ccc(S(=O)(=O)N3CCCCC3)cc2)o1` stands 917 s; under `O=C1CN(S(=O)(=O)c2ccc(Cl)s2)CC2(CCCCC2)N1Cc1ccccc1`, 1180 s. On to `CCOc1ccccc1NC(=O)Cn1cccc(S(=O)(=O)N2CCC(C)CC2)c1=O`, for which the RP-LC retention time is 857 s. The same measure for `CCOC(=O)c1noc2nc(C)nc(NCC3CCN(Cc4cccc(Cl)c4)CC3)c12`: 696 s; for `O=C(c1cccs1)N1CCCCC1c1nc(-c2ccncc2)no1` (stereo not given): 818 s; for `CCCNc1nc(N)c2ccccc2n1`: 573 s. Under `CN(C)CCNC(=O)c1ccc2ccnc(N3CCN(C(=O)c4ccco4)CC3)c2c1` stands 557 s; under `Clc1ccc(-c2nc(NC3CCCC3)c3ccccc3n2)cc1`, 887 s. For `O=C(C1CC(=O)N(c2n[nH]c3cccc(F)c23)C1)N1CCN(c2ccc(Cl)cc2)CC1` (stereo not given), the RP-LC retention time worked out at 817 s. As for `CCCNC(=O)N1CCCN(C2=NS(=O)(=O)C(c3ccccc3)=C2C)CC1`, the RP-LC retention time worked out at 735 s.

On to `Cc1ccc(CNC(=O)C(C)n2c3ccccc3c3cnn(C)c(=O)c32)o1` (stereo not given), for which the RP-LC retention time was 882 s. Regarding `Cc1cc(N2C=C(C(=O)N3CCCC3)S(=O)(=O)c3ccc(F)cc32)ccc1F`, the RP-LC retention time was 854 s.

As to `O=[N+]([O-])c1ccc(S(=O)(=O)N2CCN(c3ccc(NCC4CCCO4)nn3)CC2)cc1` (stereo not given), the RP-LC retention time was determined as 568 s.

In the case of `Cc1cc2nn(CC(=O)Nc3c(C)cccc3C)c(=O)n2c(-c2ccc(F)cc2)n1`, the RP-LC retention time came to 826 s. The same measure for `O=C(NCc1ccccc1)C(=O)c1c[nH]c2ccccc12`: 605 s; for `CCC(=O)N1c2ccc(S(=O)(=O)CCC(=O)NCCc3ccc(C)cc3)cc2CC1C` (stereo not given): 874 s; for `COc1ccc(-c2[nH]ncc2CN2C[C@@H]3CCN(S(C)(=O)=O)C[C@]3(CF)C2)cc1`: 590 s. The same measure for `c1ccc(OCc2nc(-c3cccc(-c4ccn[nH]4)c3)no2)cc1`: 906 s; for `COc1ccc(-c2nc(CCS(=O)(=O)c3ccc(C)cc3)no2)cc1OC`: 904 s.

As for `O=C(NCc1cc(F)ccc1F)C1CCc2nc(N3CCCC3)ncc2C1` (stereo not given), the RP-LC retention time turned out to be 646 s. `O=C(c1ccc2ccnc(N3CCN(c4ccc(F)cc4)CC3)c2c1)N1CCN(c2ncccn2)CC1` gave an RP-LC retention time of 749 s. The same measure for `O=C(C1CCCC1)N1CCCC1c1nc(C2CCOCC2)no1` (stereo not given): 725 s; for `Cc1ccccc1CNC(=O)c1cn(-c2ccc(-c3nc(C(C)(C)C)no3)cn2)cn1`: 1100 s. The same measure for `CC(C)n1cnc2cc(CNC(=O)c3ccc(F)cc3F)ccc21`: 623 s; for `CCN(CC)CCCNC(=O)C1c2ccccc2C(=O)N1Cc1ccc(C)cc1` (stereo not given): 633 s. Compound `O=C(c1cccs1)N1CCn2c(nnc2-c2ccccc2)C1` came in with an RP-LC retention time of 656 s. The same measure for `CCn1c(=O)n(CC(=O)N2CCCC2)c(=O)c2cnc(-c3ccc(Cl)cc3)nc21`: 1010 s; for `O=C(NCc1ccc(F)cc1)c1ccc2c(c1)nc1n2CCN(Cc2ccccc2)C1=O`: 775 s; for `N#Cc1ccccc1OCC(O)CNCCNC(=O)Nc1ccccc1` (stereo not given): 696 s. The same measure for `CCc1ccc(N2CC(c3nc(-c4ccc(OC)cc4)no3)CC2=O)cc1` (stereo not given): 988 s. Under `O=C(c1nnn2c1COC(c1ccc(Cl)cc1)C2)N1CCN(C(=O)c2c(F)cccc2F)CC1` (stereo not given) stands 951 s; under `CC(C)OC(=O)c1c(-c2ccccc2)c(-c2ccccc2)n[nH]c1=O`, 910 s. The compound `CCn1nnc2ccc(-c3noc(Cc4ccc(OC)c(OC)c4)n3)cc21` showed an RP-LC retention time of 864 s. In turn, `O=C(CN1C(=O)CCCc2cc(S(=O)(=O)N3CCCCC3)ccc21)Nc1ccc(F)c(Cl)c1` came in with an RP-LC retention time of 1000 s. Take `Cc1cc(NS(=O)(=O)c2cc(-c3nc(C(C)(C)C)cs3)cs2)ccc1F`: the RP-LC retention time came out at 1220 s. As to `Cc1cc(C)cc(NC(=O)N2CC(CN(C)C)C3(CCCCC3)C2)c1` (stereo not given), the RP-LC retention time amounted to 695 s. Take `COc1cc(OC)c(NC(=O)c2cc3c(n(-c4ccc(F)cc4)c2=O)CCCC3=O)cc1Cl`: the RP-LC retention time stood at 970 s. The compound `Cn1nnc2ccc(-c3noc(-c4cccc(Cl)c4)n3)cc21` yielded an RP-LC retention time of 1120 s. In turn, `CCc1ccc(CNC(=O)c2cc3ccncc3n2C)cc1` gave an RP-LC retention time of 648 s. Under `CNC(=O)c1cnn(-c2ccc(-c3nc(C4CC4)no3)cn2)c1C` stands 746 s. The same measure for `Cc1ccc(Cl)cc1N1CCN(c2ccc3cc(S(=O)(=O)N4CCCCC4)ccc3n2)CC1`: 1000 s; for `CCN(CC)C(=O)c1ccc2c(c1)N(CC(=O)NC1CCCCCC1)C(=O)CO2`: 768 s; for `Cc1cc(C2CCCN2C(=O)c2cc(-c3ccccc3)no2)no1` (stereo not given): 868 s. For `O=C(CCc1c(-c2ccccc2)nc2ccccn12)Nc1ccc(Br)cc1F`, the RP-LC retention time was 722 s. For the compound `CN1C2CCC1CC(OC(=O)C(O)c1ccccc1)C2` (stereo not given), the RP-LC retention time was 794 s.

In turn, `COCCN1CCC(CNC(=O)C(=O)Nc2cccc(SC)c2)CC1` came in with an RP-LC retention time of 563 s. The same measure for `Cc1ccc(CNC(=O)CCCn2nc(-n3cccc3)c3c(C)cc(C)nc32)cc1`: 1050 s; for `Fc1ccc(F)c(-c2nc(-c3ccc4nncn4c3)no2)c1`: 801 s. Under `NC(=O)CSc1nnc(CCc2nc3ccccc3s2)o1` stands 633 s; under `COC(=O)C1=C(N)C(=O)N(CCc2ccc(OC)c(OC)c2)C1`, 648 s; under `CC(C)NC(=O)Cc1nnc2cc(-c3nc(C4CC4)no3)ccn12`, 777 s. In the case of `CCNc1nc(N2CCN(C3CCCCC3)CC2)nc2c1cnn2C`, the RP-LC retention time was determined as 614 s. Under `O=C(Nc1ccon1)c1ccc(-n2cccn2)nn1` stands 659 s; under `Cc1ccc(NC(=O)N2CCC(c3nc(C(=O)N(C)C)c(C)o3)CC2)cc1Cl`, 799 s; under `Clc1cccc(-c2noc(Cc3nnc(-c4ccccc4)o3)n2)c1`, 1070 s. The same measure for `O=C1CCCc2nc(N3CCN(c4ccccc4F)CC3)ncc21`: 1060 s. Under `CCOc1ccccc1NC(=O)Nc1ccc2nc(N3CCN(C)CC3)cc(C)c2c1` stands 612 s. `FC(F)Sc1ccc(-c2cn3cc(Cl)ccc3n2)cc1` had an RP-LC retention time of 841 s.

Values taken from the METLIN SMRT retention time set (Domingo-Almenara et al. 2019).
